We go through 32 compounds from patent US8999976B2, “Modulators of cystic fibrosis transmembrane conductance regulator” (Vertex Pharmaceuticals Incorporated, priority 2008, dated 2015).

Counter-ions that a name gives are not always drawn.

The target in the assay is T1, ΔF508-CFTR (Homo sapiens, UniProt P13569, DEL508-508).
T1 construct: expressed in transfected cells
The experiment in a line: Membrane potential optical assay for potentiators of ΔF508-CFTR (FLIPR III, voltage sensing dyes). Particulars: for Emax: NIH3T3, 100% efficacy is the maximum response obtained with 4-methyl-2-(5-phenyl-1H-pyrazol-3-yl)phenol, ΔF508 CFTR NIH 3T3 cells; for EC50: temperature-corrected ΔF508 CFTR NIH 3T3 cells, forskolin activation. The class given is cell-based. An excerpt: The assay utilizes fluorescent voltage sensing dyes to measure changes in membrane potential using a fluorescent plate reader (e.g., FLIPR III, Molecular Devices, Inc.) as a readout for increase in functional ΔF508-CFTR in NIH 3T3 cells.
To identify potentiators of ΔF508-CFTR, a double-addition HTS assay format was developed. This HTS assay utilizes fluorescent voltage sensing dyes to measure changes in membrane potential on the FLIPR III as a measurement for increase in gating (conductance) of ΔF508 CFTR in temperature-corrected ΔF508 CFTR NIH 3T3 cells.
Solutions • Bath Solution #1: (in mM) NaCl 160, KCl 4.5, CaCl2 2, MgCl2 1, HEPES 10, pH 7.4 with NaOH. • Chloride-Free Bath Solution: Chloride Salts in Bath Solution #1 are Substituted with Gluconate Salts.
NIH3T3 mouse fibroblasts stably expressing ΔF508-CFTR are used for optical measurements of membrane potential. The cells are maintained at 37° C. in 5% CO2 and 90% humidity in Dulbecco's modified Eagle's medium supplemented with 2 mM glutamine, 10% fetal bovine serum, 1×NEAA, β-ME, 1×pen/strep, and 25 mM HEPES in 175 cm^2 culture flasks. For all optical assays, the cells were seeded at ˜20,000/well in 384-well matrigel-coated plates and cultured for 2 hrs at 37° C. before culturing at 27° C. for 24 hrs. for the potentiator assay. For the correction assays, the cells are cultured at 27° C. or 37° C. with and without compounds for 16-24 hours. Electrophysiological Assays for assaying ΔF508-CFTR modulation properties of compounds.

T1 sequence (P13569 with tags, fused parts or gaps DEL508-508): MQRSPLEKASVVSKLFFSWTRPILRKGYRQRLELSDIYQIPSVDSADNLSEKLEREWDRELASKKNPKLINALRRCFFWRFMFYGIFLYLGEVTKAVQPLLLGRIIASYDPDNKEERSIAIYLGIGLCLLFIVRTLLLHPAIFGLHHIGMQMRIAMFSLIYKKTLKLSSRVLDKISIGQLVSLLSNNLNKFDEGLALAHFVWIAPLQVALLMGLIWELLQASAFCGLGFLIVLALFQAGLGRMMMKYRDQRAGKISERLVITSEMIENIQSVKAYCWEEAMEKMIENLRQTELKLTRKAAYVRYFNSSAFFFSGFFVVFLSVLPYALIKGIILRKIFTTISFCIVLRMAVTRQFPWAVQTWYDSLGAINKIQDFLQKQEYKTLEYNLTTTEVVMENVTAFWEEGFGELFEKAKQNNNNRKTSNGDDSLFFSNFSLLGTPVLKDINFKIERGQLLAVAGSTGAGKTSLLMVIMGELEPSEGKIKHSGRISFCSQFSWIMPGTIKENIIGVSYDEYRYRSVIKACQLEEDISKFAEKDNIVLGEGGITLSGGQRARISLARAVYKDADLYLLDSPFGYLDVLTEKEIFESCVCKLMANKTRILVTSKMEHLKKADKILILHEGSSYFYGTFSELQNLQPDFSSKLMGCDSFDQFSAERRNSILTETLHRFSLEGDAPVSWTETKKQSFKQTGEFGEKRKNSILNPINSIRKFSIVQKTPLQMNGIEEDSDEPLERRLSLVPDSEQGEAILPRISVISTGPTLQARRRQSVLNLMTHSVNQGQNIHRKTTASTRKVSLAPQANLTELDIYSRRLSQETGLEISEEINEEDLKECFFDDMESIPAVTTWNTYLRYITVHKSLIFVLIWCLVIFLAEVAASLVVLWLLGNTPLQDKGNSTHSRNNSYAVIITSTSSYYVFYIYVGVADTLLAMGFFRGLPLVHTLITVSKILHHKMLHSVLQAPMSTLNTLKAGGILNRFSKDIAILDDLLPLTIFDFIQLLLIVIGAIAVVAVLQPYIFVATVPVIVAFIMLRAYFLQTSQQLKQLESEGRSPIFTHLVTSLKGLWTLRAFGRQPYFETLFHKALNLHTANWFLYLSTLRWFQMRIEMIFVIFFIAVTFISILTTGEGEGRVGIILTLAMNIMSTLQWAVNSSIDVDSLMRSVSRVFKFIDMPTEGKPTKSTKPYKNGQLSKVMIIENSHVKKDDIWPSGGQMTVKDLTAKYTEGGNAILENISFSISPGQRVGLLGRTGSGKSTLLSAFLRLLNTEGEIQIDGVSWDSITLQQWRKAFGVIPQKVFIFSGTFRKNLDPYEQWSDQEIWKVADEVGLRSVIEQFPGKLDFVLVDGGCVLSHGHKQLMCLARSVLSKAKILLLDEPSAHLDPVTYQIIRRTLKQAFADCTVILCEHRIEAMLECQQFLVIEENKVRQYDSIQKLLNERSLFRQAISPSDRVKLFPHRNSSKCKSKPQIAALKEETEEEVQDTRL

Usually Emax stands for the greatest response seen or fitted, relative to the assay's reference. Usually EC50 stands for the concentration needed to bring the measured effect to its halfway point. As to `Cc1ccc2c(c1)NCC(C(=O)Nc1cc(O)c(C3(C)CCCCC3)cc1F)O2` (stereo not shown) [Compound 97], the Emax fell in the range of 25 to 100% and the EC50 was less than 5 µM.
For `CNCC#Cc1cc(C2CCCC2)c(O)cc1NC(=O)C1CNc2cc(OC(F)(F)F)ccc2O1` (stereo not shown) [Compound 98, N-(4-cyclopentyl-5-hydroxy-2-(3-(methylamino)prop-1-ynyl)phenyl)-6-(trifluoromethoxy)-3,4-dihydro-2H-benzo[b][1,4]oxazine-2-carboxamide], in that order: 25 to 100% and less than 5 µM.
The like results for `CC1(c2cc(F)c(NC(=O)C3CNc4ccccc4O3)cc2O)CCCCC1` (stereo not shown) [Compound 99] were, in that order, 25 to 100% and less than 5 µM.
For `Cc1ccc(NC(=O)C2CNc3cc(OC(F)(F)F)ccc3O2)c(C#CCN2CCOCC2)c1` (stereo not shown) [Compound 100, N-(4-methyl-2-(3-morpholinoprop-1-ynyl)phenyl)-6-(trifluoromethoxy)-3,4-dihydro-2H-benzo[b][1,4]oxazine-2-carboxamide], in that order: greater than 100% and less than 5 µM.
`Cc1ccc(NC(=O)C2CNc3cc(OC(F)(F)F)ccc3O2)c(C#CCN2CCC(N)CC2)c1` (stereo not shown) [Compound 101]: the maximum response (Emax) is less than 25% and the 50% effective concentration (EC50) fell in the range of 5 to 20 µM.
The like results for `CC[N+](CC)(CC)CC#Cc1cc(C)ccc1NC(=O)C1CNc2cc(OC(F)(F)F)ccc2O1` (stereo not shown) [Compound 102] were, in that order, 25 to 100% and 5 to 20 µM.
The like results for `O=C(Nc1cc(O)c(C2CCCC2)cc1Cl)C1CNc2ccc(F)cc2O1` (stereo not shown) [Compound 103] were, in that order, 25 to 100% and less than 5 µM.
Consider `CN(C)CC#Cc1cc(N2C3CCC2CC3)ccc1NC(=O)C1CNc2ccccc2O1` (stereo not shown) [Compound 104], for which the Emax fell in the range of 25 to 100% and the EC50 lay in the range of 5 to 20 µM.
The like results for `CS(=O)(=O)c1cc(C2CCCC2)c(O)cc1NC(=O)C1CNc2cc(OC(F)(F)F)ccc2O1` (stereo not shown) [Compound 105] were, in that order, greater than 100% and 5 to 20 µM.
For `CN(C)CC#Cc1cc(C2CCCC2)c(O)cc1NC(=O)C1CNc2cc(OC(F)(F)F)ccc2O1` (stereo not shown) [Compound 106], in that order: greater than 100% and less than 5 µM.
The like results for `Cc1cccc2c1OC(C(=O)Nc1ccc(C(C)(C)C)c(O)c1)CN2` (stereo not shown) [Compound 107] were, in that order, 25 to 100% and less than 5 µM.
Turning to `CC1(c2cc(F)c(NC(=O)C3CNc4cc(OC(F)(F)F)ccc4O3)cc2O)CCCCC1` (stereo not shown) [Compound 108], the Emax lay in the range of 25 to 100% and the EC50 is less than 5 µM.
The like results for `O=C(Nc1ccc(O)c(OC(F)(F)F)c1)C1CNc2ccc(F)cc2O1` (stereo not shown) [Compound 109] were, in that order, 25 to 100% and 5 to 20 µM.
The like results for `CN(C)CC#Cc1cc(C2CCCC2)ccc1NC(=O)C1CNc2cc(C#N)ccc2O1` (stereo not shown) [Compound 110] were, in that order, 25 to 100% and less than 5 µM.
For `CN1CCC(c2cc(C3CCCC3)c(O)cc2NC(=O)C2CNc3cc(C#N)ccc3O2)CC1` (stereo not shown) [Compound 111, 6-cyano-N-(4-cyclopentyl-5-hydroxy-2-(1-methylpiperidin-4-yl)phenyl)-3,4-dihydro-2H-benzo[b][1,4]oxazine-2-carboxamide], in that order: less than 25% and 5 to 20 µM.
Regarding `CC(C)Oc1c(O)cccc1NC(=O)C1CNc2ccc(F)cc2O1` (stereo not shown) [Compound 112], the maximal effect (Emax) lay within 25 to 100% and the EC50 was in the range of 5 to 20 µM.
For `N#Cc1ccc2c(c1)NCC(C(=O)Nc1cc(O)c(C3CCCC3)cc1C1CCNCC1)O2` (stereo not shown) [Compound 113], in that order: less than 25% and 5 to 20 µM.
`CN(C)CC#Cc1cc(F)ccc1NC(=O)C1CNc2cc(C#N)ccc2O1` (stereo not shown) [Compound 114]: the maximum response (Emax) is 25 to 100% and the EC50 was in the range of 5 to 20 µM.
The like results for `CN(C(=O)C1CNc2ccccc2O1)c1ccc(C(C)(C)C)c(O)c1` (stereo not shown) [Compound 115, N-(4-tert-butyl-3-hydroxyphenyl)-N-methyl-3,4-dihydro-2H-benzo[b][1,4]oxazine-2-carboxamide hydrochloride] were, in that order, 25 to 100% and less than 5 µM.
For `Cc1ccc(NC(=O)C2CNc3cc(OC(F)(F)F)ccc3O2)c(CCN2CCOCC2)c1` (stereo not shown) [Compound 116], in that order: 25 to 100% and less than 5 µM.
The like results for `CC1CCN(Cc2cc(C3CCCC3)c(O)cc2NC(=O)C2CNc3cc(OC(F)(F)F)ccc3O2)CC1` (stereo not shown) [Compound 117] were, in that order, greater than 100% and less than 5 µM.
Consider `CCc1cc(CN2CCC(C)CC2)c(NC(=O)C2CNc3cc(OC(F)(F)F)ccc3O2)cc1O` (stereo not shown) [Compound 118], for which the maximum response (Emax) was greater than 100% and the EC50 is less than 5 µM.
For `Cc1ccc(NC(=O)C2CNc3cc(OC(F)(F)F)ccc3O2)c(CCN2CC[C@@H](F)C2)c1` (stereo partly shown) [Compound 119], the Emax was 25 to 100% and the EC50 was 5 to 20 µM.
For `CC(C)(C)c1ccc(NC(=O)C2CNc3ccccc3S2)cc1O` (stereo not shown) [Compound 120, N-(4-tert-butyl-3-hydroxy-phenyl)-3,4-dihydro-2H-1,4-benzothiazine-2-carboxamide], in that order: 25 to 100% and less than 5 µM.
The like results for `CC(C)(C)c1ccc(NC(=O)C2CNc3ccccc3S2(=O)=O)cc1O` (stereo not shown) [Compound 121, N-(4-tert-butyl-3-hydroxy-phenyl)-1,1-dioxo-3,4-dihydro-2H-benzo[b][1,4]thiazine-2-carboxamide] were, in that order, 25 to 100% and less than 5 µM.
The like results for `CN(C)CC#Cc1cc(C2CCCC2)c(O)cc1NC(=O)C1CNc2cc(F)ccc2O1` (stereo not shown) [Compound 123] were, in that order, 25 to 100% and less than 5 µM.
As to `Cc1cc2c(cc1F)NCC(C(=O)Nc1cc(O)c(C3CCCC3)cc1C#CCN(C)C)O2` (stereo not shown) [Compound 124], the maximal response (Emax) was 25 to 100% and the EC50 was less than 5 µM.
The like results for `CC(C)(C)c1ccc(NC(=O)C2CNc3ccccc3[S+]2[O-])cc1O` (stereo not shown) [Compound 125, N-(4-tert-butyl-3-hydroxy-phenyl)-1-oxo-3,4-dihydro-2H-benzo[b][1,4]thiazine-2-carboxamide] were, in that order, less than 25% and less than 5 µM.
The like results for `Cc1cc(CN2CCC(C)CC2)c(NC(=O)C2CNc3cc(OC(F)(F)F)ccc3O2)cc1O` (stereo not shown) [Compound 126] were, in that order, greater than 100% and less than 5 µM.
The like results for `Cc1cc(C#CCN(C)C)c(NC(=O)C2CNc3cc(OC(F)(F)F)ccc3O2)cc1C` (stereo not shown) [Compound 127] were, in that order, 25 to 100% and less than 5 µM.
As to `CC1(C(=O)Nc2cc(O)c(C3CCCC3)cc2C(F)(F)F)CNc2cc(OC(F)(F)F)ccc2O1` (stereo not shown) [Compound 128], the maximum response (Emax) lay in the range of 25 to 100% and the EC50 was less than 5 µM.
For `Cc1ccc(NC(=O)C2CNc3cc(OC(F)(F)F)ccc3O2)c(-c2nc(CN(C)C)no2)c1` (stereo not shown) [Compound 129], in that order: 25 to 100% and less than 5 µM.
